What all share (format): in vivo
Assay [1] relates to Solenopsis invicta. Put plainly: Activity via glass contact, fire ant. To be noted: rate 10 ppm. As for the experimental part:
(§1) 1. Activity Against Argentine Ant, Harvester Ant, Acrobat Ant, Carpenter Ant, Fire Ant, House Fly, Stable Fly, Flesh Fly, Yellowfever Mosquito, House Mosquito, Malaria Mosquito, German Cockroach, Cat Flea, and Brown Dog Tick Via Glass Contact
(§2) Glass vials (20 ml scintillation vials) were treated with 0.5 ml of a solution of active ingredient in acetone. Each vial was rolled uncapped for ca. 10 minutes to allow the a.i. to completely coat the vial and to allow for full drying of the acetone. Insects or ticks were placed into each vial.

In assay [2] the test system is Aedes aegypti. Put plainly: Activity via water treatment, yellowfever mosquito larvae. As to conditions: rate 10 ppm. The protocol:
(§3) 4. Activity Against Yellowfever Mosquito, Southern House Mosquito, and Malaria Mosquito Larvae Via Water Treatment
(§4) Well plates were used as test arenas. The active ingredient was dissolved in acetone and diluted with water to obtain the concentrations needed. The final solutions containing appr. 1% acetone were placed into each well. Approximately 10 mosquito larvae (4th-instars) in 1 ml water were added to each well. Larvae were fed one drop of liver powder each day. The dishes were covered and maintained at 22° C. Mortality was recorded daily and dead larvae and live or dead pupae were removed daily. At the end of the test remaining live larvae were recorded and percent mortality was calculated.

In assay [3] the test system is Camponotus floridanus. Put plainly: Activity via glass contact, carpenter ant. To be noted: rate 10 ppm. As for the experimental part:
as §1, §2

The subject of the next assay is Coptotermes formosanus. In words: Activity via bait (treated filter paper), Formosan termite. As to conditions: rate 0.1 w %. As for the experimental part:
(§5) 3. Activity Against Argentine Ant, Acrobat Ant, Carpenter Ant, Fire Ant, House Fly, Eastern Subterranean Termite, Formosan Subterranean Termite, and German Cockroach Via Bait
For termites, active ingredient in acetone was applied to filter papers. % a.i. were calculated on basis of the weight of the filter paper. Acetone only was applied for untreated controls. Treated papers were vented to evaporate the acetone, moistened with […], and placed Petri dishes with sand. Water was added during the test as needed. Bioassays were conducted with one treated filter and ca. 30 termite workers per test dish. Test dishes were maintained at 25° C. and appr. 85% relative humidity and observed daily for mortality (dead or moribund insects) or intoxication. Dead or moribund insects were removed daily.

Assay [4] relates to Camponotus floridanus. Put plainly: Activity via soil contact, carpenter ant. As to conditions: rate 0.01 w %. The protocol:
(§6) 2. Activity Against Argentine Ant, Acrobat Ant, Carpenter Ant, Fire Ant, and Eastern Subterranean Termite Via Soil Contact
(§7) For ants, tests were conducted in Petri dishes. A thin layer of 1% agar in water was dispensed into the dishes and Florida sandy soil was spread over the agar (5 g for the small dishes and 11 g for the larger dishes). The active ingredient was dissolved in acetone and dispensed over the sand. Dishes were vented to evaporate the acetone, infested with ants, and covered. A 20% honey water solution was placed in each dish. The dishes were maintained at 22° C. and observed for mortality at various time intervals.

Another assay has as its system Ctenocephalides felis. In words: Activity via glass contact, cat flea. As to conditions: rate 100 ppm. The protocol: as §1, §2
The subject of assay [5] is Solenopsis invicta. Put plainly: Activity via bait (corn grit), fire ant. As to conditions: rate 0.7 w %. As for the experimental part:
as §5
For the fire ants, corn grit was used as a bait matrix. […] Petri dishes were supplied with a water source. Fire ant adults were placed into each dish. The next day, 250 mg of bait in bait containers was placed into the dishes.

The test system of assay [6] is Musca domestica. In words: Activity via bait, house fly. To be noted: rate 0.1 w %. The protocol:
as §5
For house flies. Bait tests were conducted with adults aged 2-5 days post-emergence. Active ingredient in acetone was applied to a bait matrix consisting of a 1:1 mixture of powdered milk and sugar which was then allowed to dry. Assays were conducted in jars with 250 mg of bait in a pan placed in the bottom of each jar. House flies were placed into the bait jars which were covered. The test jars were held at 22° C.

Assay [7] deals with Anopheles albimanus. Put plainly: Activity via water treatment, malaria mosquito larvae. To be noted: rate 1.0 ppm. The protocol:
as §3, §4

In the next assay the test system is Stomoxys calcitrans. Put plainly: Activity via glass contact, stable fly. To be noted: rate 10 ppm. The protocol: as §1, §2
For assay [8], the system named is Anopheles albimanus. In words: Activity via glass contact, malaria mosquito. To be noted: rate 1 ppm. As for the experimental part: as §1, §2
Assay [9] concerns Musca domestica. Put plainly: Activity via glass contact, house fly. As to conditions: rate 10 ppm. As for the experimental part: as §1, §2
The subject of assay [10] is Solenopsis invicta. Put plainly: Activity via soil contact, fire ant. As to conditions: rate 0.01 w %. As for the experimental part:
as §6, §7

Assay [11] relates to Culex quinquefasciatus. Put plainly: Activity via water treatment, house mosquito larvae. As to conditions: rate 10 ppm. As for the experimental part:
as §3, §4

Assay [12] concerns Culex quinquefasciatus. In words: Activity via glass contact, house mosquito. To be noted: rate 0.5 ppm. The protocol: as §1, §2
Assay [13] deals with Aedes aegypti. In words: Activity via glass contact, yellowfever mosquito. As to conditions: rate 10 ppm. The protocol: as §1, §2
Another assay relates to Sarcophaga sp. Put plainly: Activity via glass contact, flesh fly. To be noted: rate 10 ppm. The protocol:
as §1, §2

In a further assay the test system is Crematogaster spp. In words: Activity via soil contact, acrobat ant. As to conditions: rate 0.01 w %. The protocol:
as §6, §7

On to `CCN/C(=N\Nc1c(Cl)cc(C(F)(F)F)cc1Cl)C(C)(C)C` [Compound I-1, N-ethyl-2,2-dimethylpropionamide-2-(2,6-dichloro-α,α,α-trifluoro-p-tolyl)-hydrazone], for which the “Days or Hours to achieve 100% mortality” value is 4 h in the assay on Solenopsis invicta [1]; 2 days in the assay on Aedes aegypti [2]; 1 days in the assay with Camponotus floridanus [3]; 5 days in the assay with Coptotermes formosanus; 1 days in the assay on Camponotus floridanus [4]; 2 days with Ctenocephalides felis. Moreover, the “Days or Hours to achieve 100% mortality” value is 3 days in the assay on Solenopsis invicta [5]; 3 h in the assay with Musca domestica [6]; 1 days in the assay with Anopheles albimanus [7]; 4 h in the assay with Stomoxys calcitrans; 1 days in the assay on Anopheles albimanus [8]; 4 h with Musca domestica [9]. Moreover, the “Days or Hours to achieve 100% mortality” value in the assay with Solenopsis invicta [10] stood at 1 days; with Culex quinquefasciatus [11], 1 days; in the assay on Culex quinquefasciatus [12] it was 4 h; with Aedes aegypti [13] it was 4 h; in the assay on Sarcophaga sp., 4 h; in the assay with Crematogaster spp. it was 2 days.
For the compound `CCN/C(=N\Nc1c(Cl)cc(C(F)(F)F)cc1Cl)C1(C)CC1(Cl)Cl` (stereo not drawn) [Compound I-2, N-Ethyl-2,2-dichloro-1-methylcyclopropanecarboxamide-2-(2,6-dichloro-α,α,α-tri-fluoro-p-tolyl)hydrazone], the “Days or Hours to achieve 100% mortality” value with Solenopsis invicta [1] came to 4 h; in the assay on Aedes aegypti [2], 2 days; in the assay with Camponotus floridanus [3], 1 days; with Coptotermes formosanus, 5 days; in the assay on Camponotus floridanus [4] it was 1 days; in the assay with Ctenocephalides felis it was 2 days. For the same compound, the “Days or Hours to achieve 100% mortality” value with Solenopsis invicta [5] came out at 3 days; in the assay with Musca domestica [6] it was 3 h; in the assay with Anopheles albimanus [7], 1 days; in the assay on Stomoxys calcitrans it was 4 h; with Anopheles albimanus [8], 1 days; in the assay with Musca domestica [9], 4 h. For the same compound, the “Days or Hours to achieve 100% mortality” value with Solenopsis invicta [10] amounted to 1 days; in the assay with Culex quinquefasciatus [11], 1 days; with Culex quinquefasciatus [12], 4 h; in the assay with Aedes aegypti [13], 4 h; in the assay on Sarcophaga sp., 4 h; with Crematogaster spp., 2 days.

For the origin of these results see patent US20070117868A1, “Use of n-arylhydrazine derivatives for combating non-crop pests” (priority 2004, published 2007).
